Laboratory results: PubChem BioAssay (NCI)
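Tested at 5 concentrations; 48 h exposure; 96-well plates; endpoints linearly interpolated, else capped at highest concentration. Here, GI50 denotes the concentration required for 50% inhibition of growth. TGI: total growth inhibition.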

Tests used:
Experiment in all cases: NCI tumour cell line growth inhibition, 48 h
[1] = test system: UACC-257 melanoma
[2] = test system: M14 melanoma
[3] = test system: MCF7 breast
[4] = test system: PC-3 prostate
[5] = test system: UACC-62 melanoma
[6] = test system: SK-OV-3 ovarian
[7] = test system: LOX IMVI melanoma
[8] = test system: RXF 393 renal
[9] = test system: SR leukemia
[10] = test system: SF-539 CNS
[11] = test system: RPMI-8226 leukemia
[12] = test system: HS 578T breast
[13] = test system: SNB-75 CNS
[14] = test system: HT29 colon
[15] = test system: HOP-92 NSCLC
[16] = test system: DU-145 prostate
[17] = test system: UO-31 renal
[18] = test system: HCT-116 colon
[19] = test system: HL-60(TB) leukemia
[20] = test system: EKVX NSCLC
[21] = test system: SK-MEL-28 melanoma
[22] = test system: U251 CNS
[23] = test system: MOLT-4 leukemia
[24] = test system: KM12 colon
[25] = test system: A498 renal
[26] = test system: NCI-H522 lung
[27] = test system: SW-620 colon
[28] = test system: OVCAR-5 ovarian
[29] = test system: MDA-MB-435
[30] = test system: K-562 leukemia
[31] = test system: CAKI-1 renal
[32] = test system: CCRF-CEM leukemia
[33] = test system: IGROV1 ovarian
[34] = test system: MALME-3M melanoma
[35] = test system: TK-10 renal
[36] = test system: NCI-H23 lung
[37] = test system: SK-MEL-5 melanoma
[38] = test system: T-47D breast
[39] = test system: NCI/ADR-RES ovarian
[40] = test system: SN12C renal
[41] = test system: BT-549 breast
[42] = test system: HCT-15 colon
[43] = test system: OVCAR-3 ovarian
[44] = test system: COLO 205 colon
[45] = test system: OVCAR-4 ovarian
[46] = test system: NCI-H460 lung
[47] = test system: SF-295 CNS
[48] = test system: HOP-62 NSCLC
[49] = test system: A549 NSCLC
[50] = test system: SNB-19 CNS
[51] = test system: MDA-MB-231 breast
[52] = test system: HCC-2998 colon
[53] = test system: ACHN renal
[54] = test system: 786-0 renal
[55] = test system: SF-268 CNS
[56] = test system: SK-MEL-2 melanoma
[57] = test system: NCI-H226 lung
[58] = test system: OVCAR-8 ovarian

CCOC(=O)/C=C1/SC(N2CCCCC2)C(=O)N1CC (stereo unspecified)
GI50 [1]: > 100 µM
TGI [1]: > 100 µM
GI50 [2]: > 100 µM
TGI [2]: > 100 µM
GI50 [3]: > 100 µM
TGI [3]: > 100 µM
GI50 [4]: > 100 µM
TGI [4]: > 100 µM
GI50 [5]: > 100 µM
TGI [5]: > 100 µM
GI50 [6]: > 100 µM
TGI [6]: > 100 µM
GI50 [7]: > 100 µM
TGI [7]: > 100 µM
GI50 [8]: > 100 µM
TGI [8]: > 100 µM
GI50 [9]: > 100 µM
TGI [9]: > 100 µM
GI50 [10]: > 100 µM
TGI [10]: > 100 µM
GI50 [11]: > 100 µM
TGI [11]: > 100 µM
GI50 [12]: > 100 µM
TGI [12]: > 100 µM
GI50 [13]: > 100 µM
TGI [13]: > 100 µM
GI50 [14]: > 100 µM
TGI [14]: > 100 µM
GI50 [15]: > 100 µM
TGI [15]: > 100 µM
GI50 [16]: > 100 µM
TGI [16]: > 100 µM
GI50 [17]: > 100 µM
TGI [17]: > 100 µM
GI50 [18]: > 100 µM
TGI [18]: > 100 µM
GI50 [19]: > 100 µM
TGI [19]: > 100 µM
GI50 [20]: > 100 µM
TGI [20]: > 100 µM
GI50 [21]: > 100 µM
TGI [21]: > 100 µM
GI50 [22]: > 100 µM
TGI [22]: > 100 µM
GI50 [23]: > 100 µM
TGI [23]: > 100 µM
GI50 [24]: > 100 µM
TGI [24]: > 100 µM
GI50 [25]: > 100 µM
TGI [25]: > 100 µM
GI50 [26]: > 100 µM
TGI [26]: > 100 µM
GI50 [27]: > 100 µM
TGI [27]: > 100 µM
GI50 [28]: > 100 µM
TGI [28]: > 100 µM
GI50 [29]: > 100 µM
TGI [29]: > 100 µM
GI50 [30]: > 100 µM
TGI [30]: > 100 µM
GI50 [31]: > 100 µM
TGI [31]: > 100 µM
GI50 [32]: > 100 µM
TGI [32]: > 100 µM
GI50 [33]: > 100 µM
TGI [33]: > 100 µM
GI50 [34]: > 100 µM
TGI [34]: > 100 µM
GI50 [35]: > 100 µM
TGI [35]: > 100 µM
GI50 [36]: > 100 µM
TGI [36]: > 100 µM
GI50 [37]: > 100 µM
TGI [37]: > 100 µM
GI50 [38]: > 100 µM
TGI [38]: > 100 µM
GI50 [39]: > 100 µM
TGI [39]: > 100 µM
GI50 [40]: > 100 µM
TGI [40]: > 100 µM
GI50 [41]: > 100 µM
TGI [41]: > 100 µM
GI50 [42]: > 100 µM
TGI [42]: > 100 µM
GI50 [43]: > 100 µM
TGI [43]: > 100 µM
GI50 [44]: > 100 µM
TGI [44]: > 100 µM
GI50 [45]: > 100 µM
TGI [45]: > 100 µM
GI50 [46]: > 100 µM
TGI [46]: > 100 µM
GI50 [47]: > 100 µM
TGI [47]: > 100 µM
GI50 [48]: > 100 µM
TGI [48]: > 100 µM
GI50 [49]: > 100 µM
TGI [49]: > 100 µM
GI50 [50]: > 100 µM
TGI [50]: > 100 µM
GI50 [51]: > 100 µM
TGI [51]: > 100 µM
GI50 [52]: > 100 µM
TGI [52]: > 100 µM
GI50 [53]: > 100 µM
TGI [53]: > 100 µM
GI50 [54]: > 100 µM
TGI [54]: > 100 µM
GI50 [55]: > 100 µM
TGI [55]: > 100 µM
GI50 [56]: > 100 µM
TGI [56]: > 100 µM
GI50 [57]: > 100 µM
TGI [57]: > 100 µM
GI50 [58]: > 100 µM
TGI [58]: > 100 µM
